Assay results: PubChem BioAssay AID248 (DTP/NCI, 2004)
“And” between values parts separate entries of the source, which are not always exact repeats. Equal values may be shown once. Inconclusive results and toxic doses are left out. No stated cut-off is given here; in the data, active means T/C of 150% or more; inactive means T/C below 125%.

Tested on: L1210 leukemia ip in BDF1 mice, survival T/C
Assay: NCI In Vivo Anticancer Drug Screen. Data for tumor model L1210 Leukemia (intraperitoneal) in B6D2F1 (BDF1) mice
Details: higher = longer survival
Outline: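 Transplantable tumor model; survival measured in treated vs vehicle control mice. Value = treated/control.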

[1] = endpoint: mean survival time, dose: 12.5 mg/kg/injection, schedule: Q01DX009 (ip), vehicle: saline with Tween-80
[2] = endpoint: mean survival time, dose: 25.0 mg/kg/injection, schedule: Q01DX009 (ip), vehicle: saline with Tween-80
[3] = endpoint: mean survival time, dose: 25.0 mg/kg/injection, schedule: Q04DX003 (ip), vehicle: saline with Tween-80
[4] = endpoint: mean survival time, dose: 100.0 mg/kg/injection, schedule: Q04DX002 (ip), vehicle: saline with Tween-80
[5] = endpoint: mean survival time, dose: 200.0 mg/kg/injection, schedule: Q01DX009 (ip), vehicle: saline with Tween-80
[6] = endpoint: mean survival time, dose: 200.0 mg/kg/injection, schedule: Q01DX001 (ip), vehicle: carboxymethylcellulose (CMC)
[7] = endpoint: mean survival time, dose: 400.0 mg/kg/injection, schedule: Q01DX001 (ip), vehicle: carboxymethylcellulose (CMC)
[8] = endpoint: mean survival time, dose: 100.0 mg/kg/injection, schedule: Q01DX001 (ip), vehicle: saline with Tween-80
[9] = endpoint: mean survival time, dose: 200.0 mg/kg/injection, schedule: Q01DX001 (ip), vehicle: saline with Tween-80
[10] = endpoint: mean survival time, dose: 400.0 mg/kg/injection, schedule: Q01DX001 (ip), vehicle: saline with Tween-80
[11] = endpoint: mean survival time, dose: 100.0 mg/kg/injection, schedule: Q01DX009 (ip), vehicle: Klucel (hydroxypropylcellulose) (HPC)
[12] = endpoint: mean survival time, dose: 100.0 mg/kg/injection, schedule: Q04DX002 (ip), vehicle: Klucel (hydroxypropylcellulose) (HPC)
[13] = endpoint: mean survival time, dose: 200.0 mg/kg/injection, schedule: Q01DX009 (ip), vehicle: Klucel (hydroxypropylcellulose) (HPC)
[14] = endpoint: mean survival time, dose: 100.0 mg/kg/injection, schedule: Q04DX003 (ip), vehicle: Klucel (hydroxypropylcellulose) (HPC)
[15] = endpoint: mean survival time, dose: 200.0 mg/kg/injection, schedule: Q04DX003 (ip), vehicle: Klucel (hydroxypropylcellulose) (HPC)
[16] = endpoint: mean survival time, dose: 400.0 mg/kg/injection, schedule: Q04DX003 (ip), vehicle: Klucel (hydroxypropylcellulose) (HPC)
[17] = endpoint: mean survival time, dose: 100.0 mg/kg/injection, schedule: Q01DX009 (ip), vehicle: saline

Measured: T/C

Oc1ccccc1C=NCCN1CC1.Oc1ccccc1C=NCCN1CC1.[Cu]
inactive: endpoint: mean survival time, dose: 6.25 mg/kg/injection, schedule: Q01DX001 (ip), vehicle: Klucel (hydroxypropylcellulose) (HPC) 88 % of control | endpoint: mean survival time, dose: 12.5 mg/kg/injection, schedule: Q01DX001 (ip), vehicle: Klucel (hydroxypropylcellulose) (HPC) 95 % of control | endpoint: mean survival time, dose: 25.0 mg/kg/injection, schedule: Q01DX001 (ip), vehicle: Klucel (hydroxypropylcellulose) (HPC) 95 % of control

OCCN=Cc1ccccc1O.OCCN=Cc1ccccc1O.[Ni]
inactive: endpoint: mean survival time, dose: 75.0 mg/kg/injection, schedule: Q01DX001 (ip), vehicle: other 103 % of control | endpoint: mean survival time, dose: 150.0 mg/kg/injection, schedule: Q01DX001 (ip), vehicle: other 106 % of control

Cc1ccc(Cl)cc1NC(=O)Nc1ccc(F)c([N+](=O)[O-])c1
inactive: [1] 95 % of control and 90 % of control | [2] 88 % of control and 92 % of control | [3] 90 % of control | endpoint: mean survival time, dose: 50.0 mg/kg/injection, schedule: Q01DX009 (ip), vehicle: saline with Tween-80 92 % of control | endpoint: mean survival time, dose: 50.0 mg/kg/injection, schedule: Q04DX003 (ip), vehicle: saline with Tween-80 87 % of control | [4] 96 % of control and 89 % of control | [5] 93 % of control and 100 % of control | endpoint: mean survival time, dose: 200.0 mg/kg/injection, schedule: Q04DX002 (ip), vehicle: saline with Tween-80 101 % of control and 91 % of control | endpoint: mean survival time, dose: 400.0 mg/kg/injection, schedule: Q01DX009 (ip), vehicle: saline with Tween-80 93 % of control and 104 % of control | endpoint: mean survival time, dose: 400.0 mg/kg/injection, schedule: Q04DX002 (ip), vehicle: saline with Tween-80 93 % of control and 94 % of control

c1ccc2c(c1)ccc1cc3c4ccccc4c4ccccc4c3cc12
inactive: endpoint: mean survival time, dose: 50.0 mg/kg/injection, schedule: Q01DX001 (ip), vehicle: carboxymethylcellulose (CMC) 97 % of control | [6] 90 % of control | [7] 106 % of control

Fc1cc(N(CCCl)CCCl)ccc1C=NCCCN=Cc1ccc(N(CCCl)CCCl)cc1F
inactive: endpoint: mean survival time, dose: 100.0 mg/kg/injection, schedule: Q01DX001 (ip), vehicle: carboxymethylcellulose (CMC) 95 % of control | [6] 95 % of control | [7] 111 % of control

Cc1nc2nc(N)nc(N)c2nc1CN(C)c1ccc(C(=O)NC(CCC(=O)O)C(=O)O)cc1 (centres undefined)
inactive: endpoint: median survival time, dose: 0.39 mg/kg/injection, schedule: Q01DX009 (ip), vehicle: other 100 % of control | endpoint: median survival time, dose: 0.65 mg/kg/injection, schedule: Q01DX009 (ip), vehicle: other 100 % of control | endpoint: median survival time, dose: 1.08 mg/kg/injection, schedule: Q01DX009 (ip), vehicle: other 100 % of control | endpoint: median survival time, dose: 1.8 mg/kg/injection, schedule: Q01DX009 (ip), vehicle: other 100 % of control and 90 % of control | endpoint: median survival time, dose: 5.0 mg/kg/injection, schedule: Q01DX009 (ip), vehicle: other 90 % of control | endpoint: median survival time, dose: 14.0 mg/kg/injection, schedule: Q01DX009 (ip), vehicle: other 100 % of control | endpoint: median survival time, dose: 39.0 mg/kg/injection, schedule: Q01DX009 (ip), vehicle: other 100 % of control | endpoint: median survival time, dose: 108.0 mg/kg/injection, schedule: Q01DX009 (ip), vehicle: other 100 % of control | endpoint: median survival time, dose: 180.0 mg/kg/injection, schedule: Q01DX009 (ip), vehicle: other 110 % of control | endpoint: median survival time, dose: 300.0 mg/kg/injection, schedule: Q01DX009 (ip), vehicle: other 100 % of control

O=C(CC(=O)c1cccnc1)NC(=O)c1ccccc1
inactive: endpoint: mean survival time, dose: 100.0 mg/kg/injection, schedule: Q01DX001 (ip), vehicle: other 96 % of control | endpoint: mean survival time, dose: 200.0 mg/kg/injection, schedule: Q01DX001 (ip), vehicle: other 86 % of control | endpoint: mean survival time, dose: 400.0 mg/kg/injection, schedule: Q01DX001 (ip), vehicle: other 89 % of control

O=C(Nc1ccc(S(=O)(=O)F)cc1)OCc1ccc([N+](=O)[O-])cc1
inactive: [8] 105 % of control | [9] 95 % of control | [10] 100 % of control

Cc1cccc(C)c1NC(=O)N1CCN(C)CC1
inactive: endpoint: mean survival time, dose: 25.0 mg/kg/injection, schedule: Q04DX002 (ip), vehicle: saline with Tween-80 108 % of control | endpoint: mean survival time, dose: 50.0 mg/kg/injection, schedule: Q04DX002 (ip), vehicle: saline with Tween-80 111 % of control | [11] 108 % of control | [12] 88 % of control | [4] 101 % of control | [13] 103 % of control

c1ccc(NNC(c2ccccc2)(c2ccccc2)c2ccccc2)cc1
inactive: [11] 101 % of control | [14] 101 % of control | [13] 98 % of control | [15] 95 % of control | endpoint: mean survival time, dose: 400.0 mg/kg/injection, schedule: Q01DX009 (ip), vehicle: Klucel (hydroxypropylcellulose) (HPC) 92 % of control | [16] 95 % of control

O=C(O)Cc1cccnc1
inactive: [17] 102 % of control | endpoint: mean survival time, dose: 100.0 mg/kg/injection, schedule: Q04DX003 (ip), vehicle: saline 101 % of control | endpoint: mean survival time, dose: 200.0 mg/kg/injection, schedule: Q01DX009 (ip), vehicle: saline 100 % of control | endpoint: mean survival time, dose: 200.0 mg/kg/injection, schedule: Q04DX003 (ip), vehicle: saline 104 % of control | endpoint: mean survival time, dose: 400.0 mg/kg/injection, schedule: Q01DX009 (ip), vehicle: saline 89 % of control | endpoint: mean survival time, dose: 400.0 mg/kg/injection, schedule: Q04DX003 (ip), vehicle: saline 95 % of control

CC12C(=O)c3ccccc3C(=O)C1C1CCCCC1=C1CCCCC12 (centres undefined)
inactive: [12] 93 % of control | endpoint: mean survival time, dose: 200.0 mg/kg/injection, schedule: Q04DX002 (ip), vehicle: Klucel (hydroxypropylcellulose) (HPC) 93 % of control | endpoint: mean survival time, dose: 400.0 mg/kg/injection, schedule: Q04DX002 (ip), vehicle: Klucel (hydroxypropylcellulose) (HPC) 101 % of control

NC(N)=N/N=C(\C=N\N=C(N)N)c1ccc(-c2ccc(C(/C=N/N=C(N)N)=N\N=C(N)N)cc2)cc1
inactive: endpoint: mean survival time, dose: 15.0 mg/kg/injection, schedule: Q01DX Z (oral), vehicle: saline 102 % of control | endpoint: mean survival time, dose: 30.0 mg/kg/injection, schedule: Q01DX Z (oral), vehicle: saline 96 % of control | endpoint: mean survival time, dose: 60.0 mg/kg/injection, schedule: Q01DX Z (oral), vehicle: saline 98 % of control | endpoint: mean survival time, dose: 120.0 mg/kg/injection, schedule: Q01DX Z (oral), vehicle: saline 100 % of control

N#CC(C#N)=CN1CCCCCC1
inactive: endpoint: mean survival time, dose: 6.25 mg/kg/injection, schedule: Q01DX009 (ip), vehicle: saline with Tween-80 93 % of control | endpoint: mean survival time, dose: 6.25 mg/kg/injection, schedule: Q04DX003 (ip), vehicle: saline with Tween-80 96 % of control | [1] 94 % of control | endpoint: mean survival time, dose: 12.5 mg/kg/injection, schedule: Q04DX003 (ip), vehicle: saline with Tween-80 92 % of control | [2] 89 % of control | [3] 94 % of control

O=[N+]([O-])c1ccc(-c2ccc(Br)cc2)cc1
inactive: endpoint: mean survival time, dose: 100.0 mg/kg/injection, schedule: Q01DX009 (ip), vehicle: saline with Tween-80 100 % of control | endpoint: mean survival time, dose: 100.0 mg/kg/injection, schedule: Q04DX003 (ip), vehicle: saline with Tween-80 101 % of control | [5] 86 % of control | endpoint: mean survival time, dose: 200.0 mg/kg/injection, schedule: Q04DX003 (ip), vehicle: saline with Tween-80 94 % of control | endpoint: mean survival time, dose: 400.0 mg/kg/injection, schedule: Q04DX003 (ip), vehicle: saline with Tween-80 103 % of control

O=C(O)c1ccncc1C(=O)c1csc2ccccc12
inactive: endpoint: mean survival time, dose: 25.0 mg/kg/injection, schedule: Q01DX009 (ip), vehicle: saline 108 % of control | endpoint: mean survival time, dose: 50.0 mg/kg/injection, schedule: Q01DX009 (ip), vehicle: saline 102 % of control | endpoint: mean survival time, dose: 50.0 mg/kg/injection, schedule: Q04DX003 (ip), vehicle: acetone 99 % of control | [17] 94 % of control | endpoint: mean survival time, dose: 100.0 mg/kg/injection, schedule: Q04DX003 (ip), vehicle: acetone 99 % of control

Cc1cc(NCCCN(C)C)c2c(c1N)C(=O)c1ccccc1C2=O
inactive: [14] 88 % of control | [15] 92 % of control | [16] 92 % of control

O=C1C2C3CCC(O3)C2C(=O)N1CSc1nc2ccccc2s1 (centres undefined)
inactive: [8] 96 % of control | [9] 90 % of control | [10] 95 % of control
